Molecular target: T1, PARP7 (Homo sapiens, UniProt Q7Z3E1)
T1 construct: purchased BPS 80527
T1 sequence (Q7Z3E1 1-657): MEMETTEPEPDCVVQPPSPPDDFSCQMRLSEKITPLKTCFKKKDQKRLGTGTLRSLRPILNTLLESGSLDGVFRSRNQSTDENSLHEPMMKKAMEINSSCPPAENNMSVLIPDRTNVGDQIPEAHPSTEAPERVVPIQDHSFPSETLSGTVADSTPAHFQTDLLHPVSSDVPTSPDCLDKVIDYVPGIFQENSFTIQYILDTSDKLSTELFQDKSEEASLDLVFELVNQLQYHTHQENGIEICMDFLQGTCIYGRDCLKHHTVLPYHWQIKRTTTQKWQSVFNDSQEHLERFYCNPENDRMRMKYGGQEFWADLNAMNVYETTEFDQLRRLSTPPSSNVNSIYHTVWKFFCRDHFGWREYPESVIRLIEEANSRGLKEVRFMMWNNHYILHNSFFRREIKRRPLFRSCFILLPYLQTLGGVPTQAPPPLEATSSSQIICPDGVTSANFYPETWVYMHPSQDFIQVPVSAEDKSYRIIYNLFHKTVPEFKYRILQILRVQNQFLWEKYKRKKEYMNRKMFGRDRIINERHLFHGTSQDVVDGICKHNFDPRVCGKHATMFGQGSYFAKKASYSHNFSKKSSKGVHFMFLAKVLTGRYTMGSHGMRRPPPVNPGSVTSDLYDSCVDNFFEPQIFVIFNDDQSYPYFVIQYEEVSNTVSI
Test: PARP7 inhibitory activity assay (histone-coated 384-well plate, chemiluminescence)
Assay type: biochemical
Excerpt: Inhibition rate (%) calculation formula: […]

Structure (SMILES)	IC50 [nM]
O=C(C1CN(Cc2n[nH]c(=O)cc2OC2CCC2)C1)N1CCN(c2ncc(C(F)(F)F)cn2)CC1 [Embodiment 51, 5-cyclobutoxy-6-((3-(4-(5-(trifluoromethyl)pyrimidin-2-yl)piperazine-1-carbonyl)azetidin-1-yl)methyl)pyridazin-3(2H)-one]	100 to 1000
COc1nnc(CN(C)[C@H]2C[C@H](C(=O)N3CCN(c4ncc(C(F)(F)F)cn4)CC3)C2)cc1C(F)(F)F [Embodiment 33, ((1R,3R)-3-(((6-methoxy-5-(trifluoromethyl)pyridazin-3-yl)methyl)(methyl)amino)cyclobutyl)(4-(5-(trifluoromethyl)pyrimidin-2-yl)piperazin-1-yl)methanone]	1000 to 10000
O=C([C@H]1CCC[C@H](NCc2c[nH]c(=O)c(C(F)(F)F)c2)C1)N1CCN(c2ncc(C(F)(F)F)cn2)CC1 [Embodiment 16]	1000 to 10000
O=C([C@H]1CCCN(Cc2c[nH]c(=O)c(C(F)(F)F)c2)C1)N1CCN(c2ncc(C(F)(F)F)cn2)CC1 [Embodiment 17]	100 to 1000
O=C(C1CCN(Cc2c[nH]c(=O)c(C(F)(F)F)c2)CC1)N1CCN(c2ncc(C(F)(F)F)cn2)CC1 [Embodiment 18]	100 to 1000
N#Cc1cc(C(F)(F)F)cnc1N1CCN(C(=O)C2CC(NCc3cc(C(F)(F)F)c(=O)[nH]n3)C2)CC1 [Embodiment 50, 2-(4-((1R,3R)-3-(((6-oxo-5-(trifluoromethyl)-1,6-dihydropyridazin-3-yl)methyl)amino)cyclobutane-1-carbonyl)piperazin-1-yl)-5-(trifluoromethyl)nicotinonitrile]	10 to 100
O=C([C@H]1CCN(Cc2cc(C(F)(F)F)c(=O)[nH]n2)C1)N1C2CCC1CN(c1ncc(C(F)(F)F)cn1)C2 [Embodiment 11, 4-(trifluoromethyl)-6-(((3S)-3-(3-(5-(trifluoromethyl)pyrimidin-2-yl)-3,8-diazabicyclo[3.2.1]octane-8-carbonyl)pyrrolidin-1-yl)methyl)pyridazin-3(2H)-one]	100 to 1000
O=C(C1CC2(C1)CN(Cc1c[nH]c(=O)c(C(F)(F)F)c1)C2)N1CCN(c2ncc(C(F)(F)F)cn2)CC1 [Embodiment 21]	1000 to 10000
O=c1[nH]nc(CN[C@H]2C[C@@H](C(=O)N3CCN(c4ncc(C(F)(F)F)cn4)CC3)C2)cc1C(F)(F)F [Embodiment 20]	100 to 1000
O=C(N1CCN(c2ncc(C(F)(F)F)cn2)CC1)C12CC(NCc3c[nH]c(=O)c(C(F)(F)F)c3)(C1)C2 [Embodiment 25]	100 to 1000
O=C(C1CN(Cc2n[nH]c(=O)cc2C(F)(F)F)C1)N1CCN(c2ncc(C(F)(F)F)cn2)CC1 [Embodiment 54, 5-(trifluoromethyl)-6-((3-(4-(5-(trifluoromethyl)pyrimidin-2-yl)piperazine-1-carbonyl)azetidin-1-yl)methyl)pyridazin-3(2H)-one]	100 to 1000
O=C(C1CN(Cc2c[nH]c(=O)c(C(F)(F)F)c2)C1)N1CCN(c2cnc(C(F)(F)F)cn2)CC1 [Embodiment 29]	10 to 100
O=c1[nH]cc(CN[C@H]2C[C@@H](C(=O)N3CCN(c4ncc(C(F)(F)F)cn4)CC3)C2)cc1C(F)(F)F [Embodiment 19]	10 to 100
O=C(c1ccc(NCc2c[nH]c(=O)c(C(F)(F)F)c2)cc1)N1C2CCC1CN(c1ncc(C(F)(F)F)cn1)C2 [Embodiment 7]	100 to 1000
O=C(C1CN(Cc2cc(C(F)(F)F)c(=O)[nH]n2)C1)N1CCN(c2ccc(C(F)(F)F)cn2)CC1 [Embodiment 32]	10 to 100

Further lines, results first:

IC50 [nM]	Structure (SMILES)
10 to 100	CN(Cc1cc(C(F)(F)F)c(=O)[nH]n1)[C@H]1C[C@H](C(=O)N2CCN(c3ncc(C(F)(F)F)cn3)CC2)C1 [Embodiment 34]
10 to 100	O=C(C1CN(Cc2cc(C(F)(F)F)c(=O)[nH]n2)C1)N1CCN2c3ncc(C(F)(F)F)cc3COC[C@@H]2C1 [Embodiment 44, (S)-4-(trifluoromethyl)-6-((3-(3-(trifluoromethyl)-7,7a,8,9,10,11-hexahydro-5H-pyrazino[2,1-c]pyrido[2,3-e][1,4]oxazepine-9-carbonyl)azetidin-1-yl)methyl)pyridazin-3(2H)-one]
10 to 100	O=c1[nH]nc(CN[C@H]2C[C@H](C(=O)N3CCN4c5ncc(C(F)(F)F)cc5COC[C@@H]4C3)C2)cc1C(F)(F)F [Embodiment 43]
10 to 100	O=c1[nH]nc(CN[C@H]2C[C@H](C(=O)N3CCN4c5ncc(C(F)(F)F)cc5OCC[C@@H]4C3)C2)cc1C(F)(F)F [Embodiment 38]
10 to 100	O=c1[nH]nc(CN[C@H]2C[C@H](C(=O)N3CCN(c4ncc(C(F)(F)F)cc4C4CC4)CC3)C2)cc1C(F)(F)F [Embodiment 56]
10 to 100	O=C([C@@H]1CCCN(Cc2c[nH]c(=O)c(C(F)(F)F)c2)C1)N1CCN(c2ncc(C(F)(F)F)cn2)CC1 [Embodiment 22]
10 to 100	O=c1[nH]cc(CN[C@H]2C[C@H](C(=O)N3CCN(c4ccc(C(F)(F)F)cn4)CC3)C2)cc1C(F)(F)F [Embodiment 28]
< 10	C[C@H]1CN(C(=O)[C@H]2C[C@H](NCc3c[nH]c(=O)c(C(F)(F)F)c3)C2)CCN1c1ncc(C(F)(F)F)cn1 [Embodiment 23]
10 to 100	COc1cc(C(F)(F)F)cnc1N1CCN(C(=O)[C@H]2C[C@H](NCc3cc(C(F)(F)F)c(=O)[nH]n3)C2)CC1 [Embodiment 45]
10 to 100	C[C@@H](CN1CC[C@H](C(=O)N2C3CCC2CN(c2ncc(C(F)(F)F)cn2)C3)C1)Nc1cn[nH]c(=O)c1C(F)(F)F [Embodiment 6]
10 to 100	N#Cc1cc(C(F)(F)F)cnc1N1CCN(C(=O)[C@H]2C[C@H](NCc3cc(C(F)(F)F)c(=O)[nH]n3)C2)CC1 [Embodiment 47, 2-(4-((1R,3R)-3-(((6-oxo-5-(trifluoromethyl)-1,6-dihydropyridazin-3-yl)methyl)amino)cyclobutane-1-carbonyl)piperazin-1-yl)-5-(trifluoromethyl)nicotinonitrile]
10 to 100	CC(C)(N[C@H]1C[C@H](C(=O)N2CCN(c3ncc(C(F)(F)F)cc3C(=O)N3CCCC3)CC2)C1)c1cc(C(F)(F)F)c(=O)[nH]n1 [Embodiment 66]
10 to 100	CC(C)(c1cc(C(F)(F)F)c(=O)[nH]n1)N1CC(C(=O)N2CCN(c3ncc(C(F)(F)F)cn3)CC2)C1 [Embodiment 49, 4-(trifluoromethyl)-6-(2-(3-(4-(5-(trifluoromethyl)pyrimidin-2-yl)piperazine-1-carbonyl)azetidin-1-yl)propan-2-yl)pyridazin-3(2H)-one]
< 10	Cc1cc2c(C(F)(F)F)cnc(N3CCN(C(=O)[C@H]4C[C@H](NC(C)(C)c5cc(C(F)(F)F)c(=O)[nH]n5)C4)CC3)c2[nH]1 [Embodiment 68, 6-(2-(((1R,3R)-3-(4-(2-methyl-4-(trifluoromethyl)-1H-pyrrolo[2,3-c]pyridin-7-yl)piperazine-1-carbonyl)cyclobutyl)amino)propan-2-yl)-4-(trifluoromethyl)pyridazin-3(2H)-one]
10 to 100	O=C(C1CN(Cc2cc(C(F)(F)F)c(=O)[nH]n2)C1)N1CCN2c3ncc(C(F)(F)F)cc3OCC[C@@H]2C1 [Embodiment 37]
10 to 100	C[C@H]1CN(C(=O)[C@@H]2CCN(Cc3cc(C(F)(F)F)c(=O)[nH]n3)C2)CCN1c1ncc(C(F)(F)F)cn1 [Embodiment 30]
10 to 100	O=c1cc(OC2CCC2)c(CN[C@H]2C[C@H](C(=O)N3CCN(c4ncc(C(F)(F)F)cn4)CC3)C2)n[nH]1 [Embodiment 52]
10 to 100	CCOc1cc(C(F)(F)F)cnc1N1CCN(C(=O)[C@H]2C[C@H](NC(C)(C)c3cc(C(F)(F)F)c(=O)[nH]n3)C2)CC1 [Embodiment 58]

— patent publication US20260200942A1, “PARP7 INHIBITORS AND THEIR APPLICATIONS” (CHONGQING PHARSCIN INNOBIO CO., LTD., priority 2023, published 2026)
